Assays:
[1] = target: T1, Phosphatidylinositol 4,5-bisphosphate 3-kinase catalytic subunit delta isoform (Homo sapiens, UniProt O00329); assay: Inhibition of PI3K delta (unknown origin) by Adapta assay
T1 sequence (O00329 whole entry): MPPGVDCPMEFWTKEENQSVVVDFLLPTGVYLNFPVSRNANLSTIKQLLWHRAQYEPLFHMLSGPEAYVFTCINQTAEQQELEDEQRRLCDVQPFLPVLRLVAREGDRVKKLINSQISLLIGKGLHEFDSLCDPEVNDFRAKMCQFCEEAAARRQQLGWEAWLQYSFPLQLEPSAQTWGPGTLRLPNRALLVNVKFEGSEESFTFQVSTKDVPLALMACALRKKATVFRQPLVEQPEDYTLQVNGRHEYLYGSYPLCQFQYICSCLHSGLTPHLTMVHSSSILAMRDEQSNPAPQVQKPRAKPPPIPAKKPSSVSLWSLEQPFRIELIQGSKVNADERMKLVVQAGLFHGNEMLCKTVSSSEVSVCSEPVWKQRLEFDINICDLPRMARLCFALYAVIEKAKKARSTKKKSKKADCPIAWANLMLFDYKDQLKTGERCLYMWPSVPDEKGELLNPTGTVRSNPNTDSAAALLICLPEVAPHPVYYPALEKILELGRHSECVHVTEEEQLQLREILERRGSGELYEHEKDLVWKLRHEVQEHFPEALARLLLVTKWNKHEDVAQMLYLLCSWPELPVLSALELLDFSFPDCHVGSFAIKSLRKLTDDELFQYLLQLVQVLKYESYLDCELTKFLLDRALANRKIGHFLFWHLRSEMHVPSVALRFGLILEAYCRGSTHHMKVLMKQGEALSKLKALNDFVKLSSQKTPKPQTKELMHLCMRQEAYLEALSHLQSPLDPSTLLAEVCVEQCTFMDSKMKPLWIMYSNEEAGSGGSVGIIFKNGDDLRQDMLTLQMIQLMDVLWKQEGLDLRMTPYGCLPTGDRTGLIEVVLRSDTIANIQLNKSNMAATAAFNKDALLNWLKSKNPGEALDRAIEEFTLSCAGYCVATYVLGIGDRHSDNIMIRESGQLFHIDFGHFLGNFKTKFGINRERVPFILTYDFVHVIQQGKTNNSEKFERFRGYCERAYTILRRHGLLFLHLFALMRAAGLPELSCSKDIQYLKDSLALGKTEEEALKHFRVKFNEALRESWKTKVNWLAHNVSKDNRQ

[2] = target: Prostaglandin E2 receptor EP3 subtype (Homo sapiens) (UniProt P43115); assay: Inhibition of human prostanoid EP3 receptor at 10 uM relative to control
[3] = target: Kappa-type opioid receptor (Homo sapiens) (UniProt P41145); assay: Displacement of [3H]diprenorphine from full length human recombinant KOP receptor expressed in HEK293 cells at 10 uM measured after 60 mins by radiometric scintillation analysis relative to control; type: cell-based
[4] = target: Glutamate NMDA receptor (Rattus norvegicus) (UniProt P35439+Q00959+Q00960+Q00961+Q62645+Q8VHN2+Q9R1M7); assay: Displacement of [3H]CGP-39653 from glutamate NMDA receptor in Wistar rat cerebral cortical membranes at 10 uM incubated for 20 mins by radiometric scintillation analysis relative to control
[5] = target: Corticotropin-releasing factor receptor 1 (Homo sapiens) (UniProt P34998); assay: Displacement of [125I](Tyr0)-CRF from recombinant full length human recombinant CRF1 expressed in CHO-K1 cells at 10 uM measured after 60 mins by radiometric scintillation analysis relative to control; type: cell-based
[6] = target: Alpha-1A adrenergic receptor (Rattus norvegicus) (UniProt P43140); assay: Displacement of [3H]prazosin from alpha1a adrenergic receptor in Wistar rat submaxillary gland membranes at 10 uM measured after 60 mins by scintillation counting method relative to control; type: cell membranes; conditions: Membrane
[7] = target: Adenosine receptor A1 (Homo sapiens) (UniProt P30542); assay: Displacement of [3H]DPCPX from full length recombinant human A1AR expressed in CHO cell membranes at 10 uM measured after 90 mins by scintillation counting method relative to control
[8] = target: Cathepsin G (Homo sapiens) (UniProt P08311); assay: Inhibition of endogenous human cathepsin G at 10 uM using Suc-Ala-Ala-Pro-Phe-AMC as substrate after 30 mins by spectrophotometric analysis relative to control
[9] = target: Acetylcholinesterase (Homo sapiens) (UniProt P22303); assay: Inhibition of human recombinant acetylcholine esterase expressed in HEK293 cells at 10 uM using acetylcholine as substrate preincubated for 15 mins followed by substrate addition measured after 20 mins by spectrophotometric analysis relative to control
[10] = target: Epidermal growth factor receptor (Homo sapiens, UniProt P00533, T790M); assay: Inhibition of human recombinant GST-tagged EGFR T790M mutant cytoplasmic domain expressed in baculovirus expression system using tyrosine 4 peptide as substrate after 60 mins in presence of ATP FRET based Z'-LYTE assay
[11] = target: Tyrosine-protein kinase FRK (Homo sapiens, UniProt P42685); assay: Inhibition of recombinant full length GST-tagged human FRK expressed in baculovirus expression system using tyrosine 1 as substrate after 1 hr in presence of ATP by ZYLTE assay
[12] = target: Homeodomain-interacting protein kinase 3 (Homo sapiens, UniProt Q9H422); assay: Inhibition of recombinant human His-tagged HIPK3 catalytic domain expressed in baculovirus expression system using serine/threonine-9 peptide as substrate incubated for 60 mins in presence of ATP by Z'-LYTE assay
[13] = target: Inhibitor of nuclear factor kappa-B kinase subunit alpha (Homo sapiens, UniProt O15111); assay: Inhibition of recombinant full length His-tagged human IKKalpha expressed in baculovirus expression system after 1 hr in presence of ATP by Adapta assay
[14] = target: Mitogen-activated protein kinase 8 (Homo sapiens, UniProt P45983); assay: Inhibition of recombinant full length human His-tagged JNK1alpha1 expressed in baculovirus expression system using serine/threonine-4 peptide as substrate incubated for 60 mins in presence of ATP by Z'-LYTE assay
[15] = target: Myosin light chain kinase 2, skeletal/cardiac muscle (Homo sapiens, UniProt Q9H1R3); assay: Inhibition of recombinant full length human GST-tagged MYLK2 expressed in baculovirus expression system using […] peptide as substrate incubated for 60 mins in presence of ATP by Z'-LYTE assay
[16] = target: Serine/threonine-protein kinase PAK 1 (Homo sapiens, UniProt Q13153); assay: Inhibition of recombinant full length human GST-tagged PAK1 expressed in baculovirus expression system using serine/threonine-19 peptide as substrate incubated for 60 mins in presence of ATP by Z'-LYTE assay
[17] = target: PAS domain-containing serine/threonine-protein kinase (Homo sapiens, UniProt Q96RG2); assay: Inhibition of recombinant human GST-tagged PASK catalytic domain expressed in baculovirus expression system using serine/threonine-7 peptide as substrate incubated for 60 mins in presence of ATP by Z'-LYTE assay
[18] = target: Proto-oncogene tyrosine-protein kinase receptor Ret (Homo sapiens, UniProt P07949, Y791F); assay: Inhibition of recombinant human GST-tagged RET Y791F mutant cytoplasmic domain expressed in baculovirus expression system using tyr02 peptide as substrate incubated for 60 mins in presence of ATP by Z'-LYTE assay
Chain of Proto-oncogene tyrosine-protein kinase receptor Ret (P07949 29-1114 Y791F limits assumed): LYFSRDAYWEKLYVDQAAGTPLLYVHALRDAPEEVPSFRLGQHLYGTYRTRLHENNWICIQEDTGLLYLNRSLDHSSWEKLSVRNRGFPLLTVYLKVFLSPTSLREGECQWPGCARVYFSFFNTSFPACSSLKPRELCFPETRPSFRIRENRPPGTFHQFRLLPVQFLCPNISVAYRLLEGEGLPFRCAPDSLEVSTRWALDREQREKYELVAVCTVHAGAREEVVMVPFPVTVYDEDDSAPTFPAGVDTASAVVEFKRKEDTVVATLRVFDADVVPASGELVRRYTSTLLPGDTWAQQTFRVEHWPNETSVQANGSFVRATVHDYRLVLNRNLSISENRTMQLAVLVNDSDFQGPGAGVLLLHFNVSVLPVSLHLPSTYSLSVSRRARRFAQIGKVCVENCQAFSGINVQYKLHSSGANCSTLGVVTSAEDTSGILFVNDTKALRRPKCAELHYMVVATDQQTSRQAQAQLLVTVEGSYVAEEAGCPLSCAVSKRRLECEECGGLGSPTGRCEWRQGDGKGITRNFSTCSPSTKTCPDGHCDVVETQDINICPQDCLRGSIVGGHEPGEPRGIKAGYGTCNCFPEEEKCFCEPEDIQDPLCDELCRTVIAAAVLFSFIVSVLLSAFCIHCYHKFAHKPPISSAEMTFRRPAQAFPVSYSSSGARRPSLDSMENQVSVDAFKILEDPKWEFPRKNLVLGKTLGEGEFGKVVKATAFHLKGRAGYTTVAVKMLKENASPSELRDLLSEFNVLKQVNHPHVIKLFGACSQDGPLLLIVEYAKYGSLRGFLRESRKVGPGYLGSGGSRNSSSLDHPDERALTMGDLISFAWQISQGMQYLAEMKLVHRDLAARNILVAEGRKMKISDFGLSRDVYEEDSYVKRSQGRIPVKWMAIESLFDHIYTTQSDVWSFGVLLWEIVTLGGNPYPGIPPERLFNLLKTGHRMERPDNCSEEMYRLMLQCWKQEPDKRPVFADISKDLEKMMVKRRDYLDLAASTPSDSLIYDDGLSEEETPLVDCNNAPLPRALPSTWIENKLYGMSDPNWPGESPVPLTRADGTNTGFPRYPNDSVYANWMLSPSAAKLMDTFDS

Chain of Mitogen-activated protein kinase 8 (P45983 whole entry): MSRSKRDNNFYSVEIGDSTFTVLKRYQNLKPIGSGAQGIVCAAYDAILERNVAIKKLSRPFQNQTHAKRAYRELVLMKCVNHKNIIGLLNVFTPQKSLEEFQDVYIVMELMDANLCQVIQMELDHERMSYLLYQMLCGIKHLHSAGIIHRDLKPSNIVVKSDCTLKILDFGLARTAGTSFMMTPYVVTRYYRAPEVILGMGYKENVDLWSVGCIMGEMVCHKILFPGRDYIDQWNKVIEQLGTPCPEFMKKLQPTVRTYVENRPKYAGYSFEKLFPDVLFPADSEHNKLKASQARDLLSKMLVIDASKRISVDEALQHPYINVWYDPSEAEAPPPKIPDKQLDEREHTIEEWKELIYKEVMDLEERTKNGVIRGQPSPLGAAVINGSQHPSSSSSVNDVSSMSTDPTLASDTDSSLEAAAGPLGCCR
Chain of Inhibitor of nuclear factor kappa-B kinase subunit alpha (O15111 whole entry): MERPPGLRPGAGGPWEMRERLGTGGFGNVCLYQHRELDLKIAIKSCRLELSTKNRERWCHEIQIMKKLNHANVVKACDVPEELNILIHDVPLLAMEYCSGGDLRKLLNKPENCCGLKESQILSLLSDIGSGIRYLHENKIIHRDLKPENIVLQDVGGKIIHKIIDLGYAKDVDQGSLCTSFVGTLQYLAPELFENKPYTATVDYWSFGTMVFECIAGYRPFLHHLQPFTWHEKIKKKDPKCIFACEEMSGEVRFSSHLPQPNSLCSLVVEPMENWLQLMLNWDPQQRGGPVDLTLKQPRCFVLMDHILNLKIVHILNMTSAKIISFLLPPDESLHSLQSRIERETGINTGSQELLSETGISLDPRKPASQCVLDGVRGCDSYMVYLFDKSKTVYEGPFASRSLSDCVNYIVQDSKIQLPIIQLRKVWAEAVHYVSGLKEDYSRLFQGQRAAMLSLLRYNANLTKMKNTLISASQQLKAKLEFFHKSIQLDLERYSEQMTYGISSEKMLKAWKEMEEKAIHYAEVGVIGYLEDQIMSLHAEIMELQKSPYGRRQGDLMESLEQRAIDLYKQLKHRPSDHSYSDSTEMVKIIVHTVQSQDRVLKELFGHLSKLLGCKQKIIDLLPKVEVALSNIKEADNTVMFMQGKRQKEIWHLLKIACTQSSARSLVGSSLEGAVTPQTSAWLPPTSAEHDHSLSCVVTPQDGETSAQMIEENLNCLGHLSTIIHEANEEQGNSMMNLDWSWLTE
Chain of Tyrosine-protein kinase FRK (P42685 whole entry, the tested form may be a part): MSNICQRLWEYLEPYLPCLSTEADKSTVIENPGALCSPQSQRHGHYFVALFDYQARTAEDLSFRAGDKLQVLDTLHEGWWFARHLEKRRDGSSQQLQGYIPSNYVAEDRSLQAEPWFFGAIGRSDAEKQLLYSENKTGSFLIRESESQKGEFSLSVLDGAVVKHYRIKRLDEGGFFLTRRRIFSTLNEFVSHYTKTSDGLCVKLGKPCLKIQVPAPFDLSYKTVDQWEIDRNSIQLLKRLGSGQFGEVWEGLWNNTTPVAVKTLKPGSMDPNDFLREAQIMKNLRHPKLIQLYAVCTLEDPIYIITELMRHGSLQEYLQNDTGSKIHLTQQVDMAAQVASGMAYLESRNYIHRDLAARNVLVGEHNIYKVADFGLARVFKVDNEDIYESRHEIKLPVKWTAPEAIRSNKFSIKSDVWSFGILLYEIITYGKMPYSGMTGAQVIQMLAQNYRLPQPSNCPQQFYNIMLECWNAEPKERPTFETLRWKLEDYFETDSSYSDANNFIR
Chain of Serine/threonine-protein kinase PAK 1 (Q13153 whole entry, the tested form may be a part): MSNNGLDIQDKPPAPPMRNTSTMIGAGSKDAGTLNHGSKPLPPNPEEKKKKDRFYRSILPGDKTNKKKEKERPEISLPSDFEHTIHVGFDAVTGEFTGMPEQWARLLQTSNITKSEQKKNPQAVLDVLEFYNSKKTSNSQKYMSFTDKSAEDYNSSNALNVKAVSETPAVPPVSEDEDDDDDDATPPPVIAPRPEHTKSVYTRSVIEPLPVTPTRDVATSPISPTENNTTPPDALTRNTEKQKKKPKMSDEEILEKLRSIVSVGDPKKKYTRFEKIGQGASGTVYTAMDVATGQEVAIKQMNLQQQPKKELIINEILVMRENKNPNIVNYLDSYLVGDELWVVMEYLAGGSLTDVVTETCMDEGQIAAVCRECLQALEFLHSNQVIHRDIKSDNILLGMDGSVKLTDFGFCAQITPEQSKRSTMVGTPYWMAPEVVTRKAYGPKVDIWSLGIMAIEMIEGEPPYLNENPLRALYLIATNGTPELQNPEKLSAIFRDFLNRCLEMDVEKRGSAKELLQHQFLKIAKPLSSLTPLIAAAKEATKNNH
Chain of Prostaglandin E2 receptor EP3 subtype (Homo sapiens) (P43115 whole entry): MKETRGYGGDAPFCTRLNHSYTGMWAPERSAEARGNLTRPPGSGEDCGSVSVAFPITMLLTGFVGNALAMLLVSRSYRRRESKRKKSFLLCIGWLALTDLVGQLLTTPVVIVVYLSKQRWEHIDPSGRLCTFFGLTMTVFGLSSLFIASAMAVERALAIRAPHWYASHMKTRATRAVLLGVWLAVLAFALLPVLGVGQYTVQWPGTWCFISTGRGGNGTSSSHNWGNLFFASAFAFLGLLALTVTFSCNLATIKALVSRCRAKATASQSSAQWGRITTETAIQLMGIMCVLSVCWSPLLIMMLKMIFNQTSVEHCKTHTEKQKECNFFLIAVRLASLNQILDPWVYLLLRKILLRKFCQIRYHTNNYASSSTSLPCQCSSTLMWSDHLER
Chain of Myosin light chain kinase 2, skeletal/cardiac muscle (Q9H1R3 whole entry): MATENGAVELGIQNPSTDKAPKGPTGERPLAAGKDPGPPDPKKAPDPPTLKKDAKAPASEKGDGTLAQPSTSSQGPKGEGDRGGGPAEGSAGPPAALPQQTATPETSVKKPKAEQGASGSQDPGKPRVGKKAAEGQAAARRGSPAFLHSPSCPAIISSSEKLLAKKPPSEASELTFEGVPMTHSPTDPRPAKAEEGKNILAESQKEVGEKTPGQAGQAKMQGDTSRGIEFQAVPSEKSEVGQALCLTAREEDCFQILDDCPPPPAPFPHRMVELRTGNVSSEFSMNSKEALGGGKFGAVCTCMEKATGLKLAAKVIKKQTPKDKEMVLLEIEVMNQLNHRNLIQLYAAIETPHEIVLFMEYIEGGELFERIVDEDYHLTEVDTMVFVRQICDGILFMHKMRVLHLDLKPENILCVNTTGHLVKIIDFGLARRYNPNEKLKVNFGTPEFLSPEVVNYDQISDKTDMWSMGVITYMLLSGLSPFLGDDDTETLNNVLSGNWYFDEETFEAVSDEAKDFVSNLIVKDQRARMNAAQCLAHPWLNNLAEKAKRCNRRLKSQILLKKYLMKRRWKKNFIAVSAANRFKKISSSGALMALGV
Chain of Alpha-1A adrenergic receptor (Rattus norvegicus) (P43140 whole entry): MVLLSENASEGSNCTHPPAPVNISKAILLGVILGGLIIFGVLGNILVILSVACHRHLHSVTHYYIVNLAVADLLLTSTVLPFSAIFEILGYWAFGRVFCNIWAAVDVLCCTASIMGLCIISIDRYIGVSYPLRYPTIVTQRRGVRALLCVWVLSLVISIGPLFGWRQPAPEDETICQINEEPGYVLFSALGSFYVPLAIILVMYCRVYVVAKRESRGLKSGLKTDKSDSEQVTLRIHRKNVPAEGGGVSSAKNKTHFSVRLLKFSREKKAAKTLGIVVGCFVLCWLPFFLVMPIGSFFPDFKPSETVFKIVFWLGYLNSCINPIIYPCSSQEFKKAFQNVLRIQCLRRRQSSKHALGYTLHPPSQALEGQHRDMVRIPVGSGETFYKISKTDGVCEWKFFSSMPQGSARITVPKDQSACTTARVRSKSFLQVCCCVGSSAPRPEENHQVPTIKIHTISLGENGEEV
Chain of Cathepsin G (Homo sapiens) (P08311 whole entry): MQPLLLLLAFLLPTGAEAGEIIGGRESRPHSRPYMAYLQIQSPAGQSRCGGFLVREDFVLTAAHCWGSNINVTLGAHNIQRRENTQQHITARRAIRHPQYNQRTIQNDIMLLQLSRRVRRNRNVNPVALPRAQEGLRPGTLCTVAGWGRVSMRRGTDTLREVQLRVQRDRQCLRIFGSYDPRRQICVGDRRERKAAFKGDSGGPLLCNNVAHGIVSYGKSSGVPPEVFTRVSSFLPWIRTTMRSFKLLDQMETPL

`C[C@@H]1C[C@H]1C(=O)N1CCN(c2cnc(C#N)c(-c3cnn(C)c3)n2)C[C@H]1C` gave an IC50 [1] of less than 0.01 µM, an inhibition [2] of 7% and an inhibition [3] of 5%. The inhibition [4] was -1%, the inhibition [5] was 6% and the inhibition [6] was -7%. For the same compound, the inhibition [7] was 10%, the inhibition [8] was 6% and the inhibition [9] was 37%. For the same compound, the IC50 [10] was greater than 100 µM, the IC50 [11] was greater than 100 µM and the IC50 [12] was greater than 100 µM. For the same compound, the IC50 [13] was greater than 100 µM, the IC50 [14] was greater than 100 µM and the IC50 [15] was greater than 100 µM. For the same compound, the IC50 [16] was greater than 100 µM, the IC50 [17] was greater than 100 µM and the IC50 [18] was greater than 100 µM.

From ChEMBL document CHEMBL4602617, “Discovery and optimization of heteroaryl piperazines as potent and selective PI3Kδ inhibitors” (Bioorg Med Chem Lett, 2020)
